“Also recorded” adds a separate entry of the source.
Legend:
[1] = tested on: neonatal rat cardiomyocytes (NRCMs); assay: NRCM bioassay with pharmacological inhibitors (mechanism of cellular action); type: cell-based; details: for inhibition of the negative chronotropic effects of EPA, 17,18-EETeTr and C13: 5 min preincubation, 11,12-EET 30 nM, C3, AH6089 10 μM, EPA 3.3 μM, 17,18-EETeTr 30 nM, C13 30 nM; for inhibition of the negative chronotropic effects of EPA, 17,18-EETeTr and C13 / blocking of the positive chronotropic effect of butaprost: calphostin C 100 nM, H89 1 μM; for blocking of the positive chronotropic effect of butaprost: butaprost 100 nM, AH6089 10 μM
Method: The bioassay with NRCMs was performed as described in examples 25 and 26. […] The cultured NRCMs were preincubated without or with one of the compounds indicated in FIG. 4 for 5 min before the effect of the following agonists was determined: EPA (3.3 μM), 17,18-EETeTr (30 nM) or C13 (30 nM). In some experiments, the NRCMs were stimulated with a selective EP2 prostanoid receptor agonist (butaprost from Sigma-Aldrich; used at a final concentration of 100 nM) to provide a control for the effect of certain inhibitors.

[2] = tested on: neonatal rat cardiomyocytes (NRCMs); assay: Chronotropic effect on spontaneous beating rate of cultured neonatal rat cardiomyocytes (identification of agonists); type: cell-based; details: for chronotropic effect (Δ beats/min), mean±SE / agonistic / chronotropic effect on NRCMs, in words: 30 nM, incubation time 5 min; for chronotropic effect (Δ beats/min), mean±SE: NRCM clusters; for agonistic / chronotropic effect on NRCMs, in words: compound alone
Text: This negative chronotropic effect reflects the capacity of the analogs to interact with and to activate a G-protein coupled receptor or other primary cellular targets that reduce the contractility of cardiomyocytes under basal and stress-induced conditions.
The compounds included EPA and 17,18-EETeTr (compounds 01 and 02; purchased from Cayman Chemical) as well as all but one (compound 16) of the analogs synthesized as described in examples 1-24. The R,S— and S,R-enantiomers of 17,18-EETeTr (compounds 03 and 04) were prepared resolving the racemic mixture (compound 02) by means of chiral-phase HPLC as described previously (Barbosa-Sicard E, Markovic M, Honeck H, Christ B, Muller D N, Schunck W H. Biochem Biophys Res Commun. 2005 Apr. 22; 329(4):1275-81). Before use, the compounds to be tested were prepared as 1000-fold stock solutions in ethanol.
Isolation and cultivation of NRCMs were performed as described previously (Wallukat, G; Wollenberger, A. Biomed Biochim Acta. 1987; 78:634-639; Wallukat G, Homuth V, Fischer T, Lindschau C, Horstkamp B, Jupner A, Baur E, Nissen E, Vetter K, Neichel D, Dudenhausen J W, Haller H, Luft F C. J Clin Invest. 1999; 103: 945-952). Briefly, neonatal Wistar rats (1-2 days old) were killed in conformity to the recommendations of the Community of Health Service of the City of Berlin and the cardiomyocytes were dissociated from the minced ventricles with a 0.2% solution of crude trypsin. The isolated cells were then cultured as monolayers on the bottom (12.5 cm^2) of Falcon flasks in 2.5 ml of Halle S M 20-I medium equilibrated with humidified air. The medium contained 10% heat-inactivated FCS and 2 μmol/l fluoro-deoxyuridine (Serva, Heidelberg, Germany), the latter to prevent proliferation of non-muscle cells. The NRCMs (2.4×10^6 cells/flask) were cultured at 37° C. in an incubator. After 5 to 7 days, the NRCMs formed spontaneously beating cell clusters. […] On the day of the experiment, the culture medium was replaced by 2.0 ml fresh serum-containing medium. Two hours later, the beating rates were monitored at 37° C. using an inverted microscope equipped with a heating stage. To determine the basal rate, 6 to 8 individual clusters were selected and the number of contractions was counted for 15 sec. After that, the compound to be tested was added to the culture and the beating rate of the same clusters was monitored 5 min later again. Based on the difference between the basal and compound-induced beating rate of the individual clusters, the chronotropic effects (Δ beats/min) were calculated and are given as mean±SE values. N refers to the number of clusters monitored which originated, in general, from at least three independent NRCM cultures.
This effect was fully expressed using an EPA concentration of 3.3 μM and an incubation time of 30 min. In contrast, 17,18-EETeTr (C02) produced the same effect almost immediately and already in the low nanomolar range (EC50 of 1-2 nM, data not shown). To compare the activity of 17,18-EETeTr with that of its synthetic analogs, all these compounds were tested at a final concentration of 30 nM and using an incubation time of 5 min.

[3] = tested on: neonatal rat cardiomyocytes (NRCMs); assay: Antagonism of the negative chronotropic effect of agonists in NRCMs (identification of antagonists); type: cell-based; details: for inhibition of the agonistic effect of compound C4: 5 min preincubation, C4 and potential antagonist each 30 nM
Method: These antagonists were selected based on their capacity to abolish the negative chronotropic effects of EPA, 17,18-EETeTr and their synthetic agonists on the contractility of neonatal rat cardiomyocytes.
Potential antagonists included compounds C1, C3, C5, C6, C7, and C8, which were synthesized as described above in the corresponding examples.
The bioassay was performed with NRCMs as described in example 25. In the first series of experiments, compound C4 was used as the agonist and its effect was determined after preincubating the cultured NRCMc for 5 min with one of the potential antagonists. Both C4 and the potential antagonist were used at a final concentration of 30 nM.

CCCCC/C=C\CC1OC1C/C=C\C/C=C\CCCC(=O)O (stereo not shown) [11,12-EET, 11,12-epoxyeicosatrienoic acid]
inhibition of the negative chronotropic effects of EPA, 17,18-EETeTr and C13 [1]: strongly inhibited

CCC1OC1C/C=C/C/C=C/C/C=C/C/C=C/CCCC(=O)O (stereo not shown) [17,18-EETeTr, reference compound]
chronotropic effect (Δ beats/min), mean±SE [2]: −22.5±0.8 beats/min | EC50 ([2]; NRCMs, effect almost immediate, data not shown, read-out: EC50 of reduction of the beating rate): 1 to 2 nM | agonistic / chronotropic effect on NRCMs, in words [2]: acted as agonist

CC(C)Oc1ccc2c(=O)c3cc(C(=O)O)ccc3oc2c1 [AH6089]
inhibition of the negative chronotropic effects of EPA, 17,18-EETeTr and C13 [1]: strongly inhibited | blocking of the positive chronotropic effect of butaprost [1]: blocked

CCC1OC1C/C=C\CCCCCCC/C=C\CCCC(=O)O (stereo not shown) [Compound C1, (5Z,14Z)-16-(3-Ethyloxirane-2-yl)hexadeca-5,14-dienoic acid]
inhibition of the agonistic effect of compound C4 [3]: did not inhibit | agonistic / chronotropic effect on NRCMs, in words [2]: inactive when tested alone

CCC1OC1CCCC/C=C\CCCC/C=C\CCCC(=O)O (stereo not shown) [Compound C2, (5Z,11Z)-16-(3-Ethyloxirane-2-yl)hexadeca-5,11-dienoic acid]
agonistic / chronotropic effect on NRCMs, in words [2]: Agonists

CCC1OC1C/C=C\CCCC/C=C\CCCCCCC(=O)O (stereo not shown) [Compound C3, (8Z,14Z)-16-(3-Ethyloxirane-2-yl)hexadeca-8,14-dienoic Acid]
inhibition of the agonistic effect of compound C4 [3]: significantly inhibited | effect on the negative chronotropic effect of EPA ([3]; antagonist 30 nM, EPA 3.3 μM): abolished | antagonistic effect against C4, EPA, 17,18-EETeTr, C2 and C13 ([3]; antagonist 30 nM, EPA 3.3 μM, other agonists 30 nM each): highly potent antagonist | effect on the negative chronotropic effect of C13 ([3]; both analogs in equimolar concentrations (30 nM)): almost completely blocked | inhibition of the negative chronotropic effects of EPA, 17,18-EETeTr and C13 [1]: strongly inhibited | blocking of the positive chronotropic effect of butaprost [1]: not | agonistic / chronotropic effect on NRCMs, in words [2]: did not exert any significant effect

CCC1OC1CCCC/C=C\CCCCCCCCCC(=O)O (stereo not shown) [Compound C4, 16-[(Z)-3-Ethyloxiranyl]hexadec-11(Z)-enoic Acid]
chronotropic effect (Δ beats/min), mean±SE [2]: −18.3±1.5 beats/min | agonistic / chronotropic effect on NRCMs, in words [2]: Agonists; also recorded: agonistic effects

CCC1OC1C/C=C\CCCCCCCCCCCCC(=O)O (stereo not shown) [Compound C5, 16-[(Z)-3-Ethyloxiranyl]hexadec-14(Z)-enoic Acid]
inhibition of the agonistic effect of compound C4 [3]: significantly inhibited | agonistic / chronotropic effect on NRCMs, in words [2]: no effect; also recorded: did not exert any significant effect

CCC1OC1CCCCCCC/C=C\CCCCCCC(=O)O (stereo not shown) [Compound C6, 16-[(Z)-3-Ethyloxiranyl]hexadec-8(Z)-enoic Acid]
inhibition of the agonistic effect of compound C4 [3]: did not inhibit | agonistic / chronotropic effect on NRCMs, in words [2]: inactive when tested alone

CCC1OC1CCCCCCCCCC/C=C\CCCC(=O)O (stereo not shown) [Compound C7, 16-[(Z)-3-Ethyloxiranyl]hexadec-5(Z)-enoic Acid]
inhibition of the agonistic effect of compound C4 [3]: did not inhibit | agonistic / chronotropic effect on NRCMs, in words [2]: inactive when tested alone

CCC1OC1CCCCCCCCCCCCCCCC(=O)O (stereo not shown) [Compound C8, 16-[(Z)-3-Ethyloxiranyl]hexadecanoic Acid]
inhibition of the agonistic effect of compound C4 [3]: did not inhibit | melting point: 62.1 to 62.5 °C | agonistic / chronotropic effect on NRCMs, in words [2]: inactive when tested alone

CCCC(=O)NCCCC/C=C\CCCCCCCCCC(=O)O [Compound C12, 16-(Butyrylamino)hexadec-11(Z)-enoic acid]
melting point: 99.2 to 99.6 °C | agonistic / chronotropic effect on NRCMs, in words [2]: largely inactive

CNC(=O)C(=O)NCCCC/C=C\CCCCCCCCCC(=O)O [Compound C13, 16-(2-(methylamino)-2-oxoacetamido)hexadac-11(Z)-enoic acid]
chronotropic effect (Δ beats/min), mean±SE [2]: −33.7±1.3 beats/min | agonistic / chronotropic effect on NRCMs, in words [2]: Agonists

CCNC(=O)NCCCC/C=C\CCCCCCCCCC(=O)OCCOCCOCCO [Compound C18, 2-(2-(2-Hydroxyethoxy)ethoxy)ethyl 16-(3-ethylureido)hexadec-11 (Z)-enoate]
agonistic / chronotropic effect on NRCMs, in words [2]: Agonists

CCCC(=O)NC/C=C\CCCCCCCCCCCCC(=O)O [Compound C22, 16-Butyramidohexadec-14(Z)-enoic acid]
melting point: 72.7 to 73.1 °C | agonistic / chronotropic effect on NRCMs, in words [2]: positive chronotropic effect

CCCCNC(=O)CCC/C=C\CCCCCCCCCC(=O)O [Compound C24, 16-(Butylamino)-16-oxohexadec-11 (Z)-enoic acid]
melting point: 78.2 to 78.8 °C | agonistic / chronotropic effect on NRCMs, in words [2]: Agonists; also recorded: maintain

O=S(=O)(NCCNC/C=C/c1ccc(Br)cc1)c1cccc2cnccc12 [Compound H89]
inhibition of the negative chronotropic effects of EPA, 17,18-EETeTr and C13 [1]: not affected | blocking of the positive chronotropic effect of butaprost [1]: blocked

CC/C=C\C/C=C\C/C=C\C/C=C\C/C=C\CCCC(=O)O [EPA, eicosapentaenoic acid, reference compound]
concentration resulting in a progressive reduction of the beating rate ([2]; NRCM cultures): above 1 μM | concentration at which the reduction of the beating rate was fully expressed ([2]; incubation time of 30 min): 3.3 µM

CCCC1([C@H](O)C/C=C/[C@H]2[C@H](O)CC(=O)[C@@H]2CCCCCCC(=O)OC)CCC1 [butaprost]
chronotropic effect on NRCMs ([1]; 100 nM): positive chronotropic effect

calphostin C
inhibition of the negative chronotropic effects of EPA, 17,18-EETeTr and C13 [1]: strongly inhibited | blocking of the positive chronotropic effect of butaprost [1]: not

Source: patent US11365183B2, “Eicosanoid derivatives” (MAX-DELBRUECK-CENTRUM FUER MOLEKULARE MEDIZIN, priority 2009, dated 2022)
